In ChEMBL document CHEMBL1212812, “Multi-target spectral moment QSAR versus ANN for antiparasitic drugs against different parasite species” (Bioorg Med Chem, 2010):

Assays:
Type in all cases: functional, organism-based
Leishmania major = assay: Antimicrobial activity against Leishmania major
Trypanosoma cruzi = assay: Antimicrobial activity against Trypanosoma cruzi; conditions: Trypanosoma cruzi
[1] = tested on: Trypanosoma brucei rhodesiense; assay: Antimicrobial activity against Trypanosoma brucei rhodesiense
Plasmodium falciparum = assay: Antimicrobial activity against Plasmodium falciparum
Trypanosoma brucei = assay: Antimicrobial activity against Trypanosoma brucei
Toxoplasma gondii = assay: Antimicrobial activity against Toxoplasma gondii
Cryptosporidium parvum = assay: Antimicrobial activity against Cryptosporidium parvum
[2] = tested on: Trypanosoma brucei brucei; assay: Antimicrobial activity against Trypanosoma brucei brucei
Leishmania mexicana = assay: Antimicrobial activity against Leishmania mexicana

C[C@]12CC[C@H](O)C[C@@H]1CC[C@@H]1[C@@H]2CC[C@@]2(C)[C@H]1CC[C@@H]2[C@@](C)(O)c1cccnc1 was tested, and the IC50 (Leishmania major) was 100 µM and the IC50 (Trypanosoma cruzi) was 50 µM.
Work on C1CNC(N2CCN(N3CCN(C4=NCCN4)CC3)CC2)=N1 yielded an IC50 [1] of 28 µM.
Cn1c2nc3ccccc3c-2cc2ccc(Cl)cc21 was tested, and the IC50 (Plasmodium falciparum) was 5 µM, the IC50 (Trypanosoma brucei) was 9 µM and the IC50 (Trypanosoma cruzi) was 17 µM.
Compound C1CN(N2CCNCC2)CCN1 has an IC50 [1] of 17 µM.
With N[C@@H]1[C@H]2CN(c3cc4c(cc3F)c(=O)c(C(=O)O)cn4-c3ccc(F)cc3F)C[C@@H]12 [TROVAFLOXACIN6] the IC50 (Toxoplasma gondii; Toxoplasma gondii) was 3 µM.
Nc1nc(N)c2nc(Cc3ccc(Cl)cc3)c(Cc3ccc(Cl)cc3)nc2n1 showed an IC50 (Cryptosporidium parvum) of 1 µM.
c1ccc2cc(Sc3cc4ccccc4[nH]3)ccc2c1 showed an IC50 (Toxoplasma gondii; Toxoplasma gondii) of 4 µM.
Work on NCCCNCCN yielded an IC50 [1] of 49 µM.
O=C(NCCCN(CCNC(=O)OCc1ccccc1)CCc1c[nH]c2ccccc12)OCc1ccccc1 showed an IC50 [1] of 84 µM.
In the case of N=C(N)c1ccc(NC(=O)Cn2cnc([N+](=O)[O-])c2)cc1, the IC50 [2] is reported as 200 µM and the IC50 [1] is reported as 80 µM.
With CCCC(C)NC(=O)c1ccc(N(C)Cc2cnc3nc(N)nc(N)c3n2)cc1 (centres undefined) the IC50 (Cryptosporidium parvum) was 1 µM.
Compound Clc1cc(Cl)c2[nH]c3nc4ccccc4c-3cc2c1 has an IC50 (Trypanosoma brucei) of 32 µM.
Work on COc1ccc(OC)c(Cc2sc3nc(N)nc(N)c3c2C)c1 yielded an IC50 (Cryptosporidium parvum) of 1 µM.
With NC[C@@H]1[C@H]2CN(c3nc4c(cc3F)c(=O)c(C(=O)O)cn4C3CC3)C[C@@H]12 [TROVAFLOXACIN9] the IC50 (Toxoplasma gondii; Toxoplasma gondii) was 12 µM.
O=C(NCCCN(CCO)CCNC(=O)OCc1ccccc1)OCc1ccccc1 gave an IC50 [1] of 4 µM.
CCCC1(N)CC(C)(C)CC(C)(C)C1 was tested, and the IC50 (Trypanosoma brucei) was 6 µM.
O=[N+]([O-])c1ccc(/C=N/O)o1 [NIFUROXIME] gave an IC50 [2] of 1 µM and an IC50 [1] of 1 µM.
In the case of Fc1ccc2[nH]c3nc4ccccc4c-3cc2c1, the IC50 (Plasmodium falciparum) is reported as 32 µM, the IC50 (Trypanosoma brucei) is reported as 32 µM and the IC50 (Trypanosoma cruzi) is reported as 32 µM.
For C[C@]12CC[C@H](O)C[C@@H]1CC[C@@H]1[C@@H]2CC[C@@]2(C)[C@H]1CC[C@@H]2[C@@](C)(O)C1CCCNC1 (some centres undefined), the IC50 (Leishmania major) was 13 µM and the IC50 (Trypanosoma cruzi) was 23 µM.
With N/N=C/c1ccc([N+](=O)[O-])o1 the IC50 [2] was 14 µM and the IC50 [1] was 2 µM.
Work on CNC12CC3CC(C1)CC(C(C)C)(C3)C2 yielded an IC50 (Trypanosoma brucei) of 6 µM.
Compound COc1cc(CCc2cc3c(N)nc(N)nc3s2)c(Br)c(OC)c1OC has an IC50 (Cryptosporidium parvum) of 5 µM.
In the case of CC(C)(C)CC(=O)N1CCN(N2CCN(C(=O)CC(C)(C)C)CC2)CC1, the IC50 [1] is reported as 5 µM.
With Nc1nc(N)nc(N/N=C\c2ccco2)n1 the IC50 [2] was 29 µM and the IC50 [1] was 13 µM.
C[C@@H]1[C@@H]2[C@@H](CN)[C@@H]2CN1c1nc2c(cc1F)c(=O)c(C(=O)O)cn2-c1ccc(F)cc1F [TROVAFLOXACIN7] was tested, and the IC50 (Toxoplasma gondii; Toxoplasma gondii) was 3 µM.
For CSc1c(Sc2ccc([N+](=O)[O-])cc2)[nH]c2ccccc12, the IC50 (Toxoplasma gondii; Toxoplasma gondii) was 28 µM.
C[C@@H]1[C@@H]2[C@@H](N)[C@@H]2CN1c1nc2c(cc1F)c(=O)c(C(=O)O)cn2-c1ccc(F)cc1F [TROVAFLOXACIN1] was tested, and the IC50 (Toxoplasma gondii; Toxoplasma gondii) was 1 µM.
N[C@@H]1[C@H]2CN(c3nc4c(cc3F)c(=O)c(C(=O)O)cn4-c3ccc(F)cc3F)C[C@@H]12 (stereo in doubt; form 2) [TROVAFLOXACIN] gave an IC50 (Toxoplasma gondii) of 2 µM.
CC(C)(C)OC(=O)NCCNC(=S)N1CCN(N2CCN(C(=S)NCCNC(=O)OC(C)(C)C)CC2)CC1 showed an IC50 [1] of 14 µM.
In the case of COc1ccc(OC)c(-c2sc3nc(N)nc(N)c3c2C)c1, the IC50 (Cryptosporidium parvum) is reported as 1 µM.
Clc1ccc2[nH]c3nc4ccccc4c-3cc2c1 was tested, and the IC50 (Plasmodium falciparum) was 32 µM, the IC50 (Trypanosoma brucei) was 32 µM and the IC50 (Trypanosoma cruzi) was 32 µM.
N[C@@H]1[C@H]2CN(c3nc4c(cc3F)c(=O)c(C(=O)O)cn4-c3ccc(F)cc3F)C[C@@H]12 (stereo in doubt; form 1) [TROVAFLOXACIN] was tested, and the IC50 (Toxoplasma gondii; Toxoplasma gondii) was 3 µM.
For C(CNCCNC1=NCCN1)CNC1=NCCN1, the IC50 [1] was 11 µM.
COc1cc(Cc2cnc(N)nc2N)cc(OC)c1OC [TRIMETHOPRIM] showed an IC50 (Cryptosporidium parvum) of 4 µM.
Nc1nc(N)c2cc(CN3c4ccccc4C=CC4C=CC=CC43)cnc2n1 (centres undefined) gave an IC50 (Cryptosporidium parvum) of 1 µM.
In the case of Cn1c2nc3ccccc3c-2cc2cc([N+](=O)[O-])ccc21, the IC50 (Trypanosoma brucei) is reported as 1 µM.
NCCCN(CCN)CCc1c[nH]c2ccccc12 was tested, and the IC50 [1] was 16 µM.
In the case of CCC(=O)N1CCCCC1[C@](C)(O)[C@H]1CC[C@H]2[C@@H]3CC[C@H]4C[C@@H](O)CC[C@]4(C)[C@H]3CC[C@@]21C (some centres undefined), the IC50 (Leishmania major) is reported as 54 µM and the IC50 (Trypanosoma cruzi) is reported as 65 µM.
In the case of Nc1nc(N)nc(N/N=C\c2cccs2)n1, the IC50 [2] is reported as 89 µM and the IC50 [1] is reported as 10 µM.
CSc1ccc2c(c1)cc1c3ccccc3nc-1n2C was tested, and the IC50 (Trypanosoma brucei) was 1 µM.
With N[C@@H]1[C@H]2CN(c3nc4c(cc3F)c(=O)c(C(=O)O)cn4C3CC3)C[C@@H]12 [TROVAFLOXACIN4] the IC50 (Toxoplasma gondii; Toxoplasma gondii) was 2 µM.
N=C(NCCCN(CCNC(=N)NC1CCCCC1)C(=N)NC1CCCCC1)NC1CCCCC1 was tested, and the IC50 [1] was 21 µM.
Work on CC1CS(=O)(=O)CCN1/N=C/c1ccc([N+](=O)[O-])o1 (centres undefined) [NIFURTIMOX] yielded an IC50 [2] of 6 µM and an IC50 [1] of 2 µM.
With NCC12CC1CN(c1nc3c(cc1F)c(=O)c(C(=O)O)cn3C1CC1)C2 (centres undefined) [TROVAFLOXACIN10] the IC50 (Toxoplasma gondii; Toxoplasma gondii) was 12 µM.
For N=C(N)c1ccc(OCCCOc2ccc(C(=N)N)cc2)cc1 [PROPAMIDINE], the IC50 (Leishmania mexicana) was 10 µM.
CCNC1(C)CC(C)(C)CC(C)(C)C1 was tested, and the IC50 (Trypanosoma brucei) was 6 µM.
Cn1c2nc3ccccc3c-2cc2cc(Cl)ccc21 was tested, and the IC50 (Trypanosoma brucei) was 1 µM.
In the case of O=C(O)COCCOCCOc1cc(Cl)c(Cl)cc1Cl, the IC50 (Toxoplasma gondii; Toxoplasma gondii) is reported as 1 µM.
CN(CCCNC1=NCCN1)CCNC1=NCCN1 was tested, and the IC50 [1] was 2 µM.
